Assay results: paper PMC12909347, “Disconnect between in vitro and in vivo efficacy of the MPS1 inhibitor NTRC 0066-0 against glioblastoma” (Cellular Oncology, 2026)

Assays:
[1] = test system: orthotopic E98 GBM tumors; test: Orthotopic E98 GBM xenograft efficacy in Abcb1a/b;Abcg2-/- mice; assay type: in vivo; conditions: TMZ + RT given at tumor size 10^7-10^8 p/s
Protocol: Orthotopic GBM tumors were induced in Abcb1a/b; Abcg2^−/− mice by stereotactic injection of E98 cells expressing firefly luciferase (200,000 cells in 2 µL HBSS (Life Technologies) at an injection speed of 1 µL/min) at 2 mm lateral, 1 mm anterior and 3 mm ventral to the bregma. Tumor growth was monitored using bioluminescence imaging by injecting D-luciferin (150 mg/kg i.p.; Promega, Madison, WI) and subsequently imaging mice on an IVIS Spectrum Imaging System (PerkinElmer, Waltham, MA). Survival was monitored daily and the humane endpoint was defined as body weight loss exceeding 20%. Time-to-recurrence was defined as the number of days elapsed until the tumor regained its pre-treatment size. Tumors were treated with CT-guided radiotherapy (2–3.5 Gy per fraction) using an X-RAD 225Cx system (Precision X-Ray, North Branford, CT), temozolomide (10 mg/kg p.o. freshly prepared from powder in an aqueous solution containing 10% v/v ethanol), NTRC0066-0 (20, 10 or 5 mg/kg p.o. in an aqueous solution containing 10% v/v DMSO and 10% v/v Cremophor EL (Life Technologies)) or different combinations thereof, as described per experiment in the Figure legends.

[2] = test system: MPS1; set-up: method as in PMID 23940287; conditions: reported; cited from earlier work

Row | SMILES | Tumor bioluminescence signal after regression [1] | IC50s (intrinsic potency) [2]
1 | Cn1nnc2c(C(N)=O)ncn2c1=O [TMZ, temozolomide, reference compound] | about 10^5 p/s | 
2 | COc1cc(N2CCC(O)CC2)ccc1Nc1nc(Nc2ccccc2S(=O)(=O)C(C)C)c2[nH]cnc2n1 [MPS1-IN-3] |  | micromolar range
